Experimental data from paper PMC8533333, “Melatonin Analogues Potently Inhibit MAO-B and Protect PC12 Cells against Oxidative Stress” (Antioxidants, 2021).
pIC50: −log10 of the molar value.

Legend:
[1] = target: T1, Human recombinant MAO-B (hMAO-B) (Homo sapiens, UniProt P27338); assay: MAO-B enzyme assay (Amplex Red, resorufin fluorescence); assay type: biochemical; settings: for Selectivity Index (SI): IC50 (MAO-A)/IC50 (MAO-B); for pIC50: five doses 10-0.001 µM, triplicate; for % Inhibition of MAO-B at 10 µM / inhibition at 10 µM: single dose 10 µM
T1 construct: purchased Sigma Aldrich; host or cells: insect cells
T1 sequence (P27338 1-520): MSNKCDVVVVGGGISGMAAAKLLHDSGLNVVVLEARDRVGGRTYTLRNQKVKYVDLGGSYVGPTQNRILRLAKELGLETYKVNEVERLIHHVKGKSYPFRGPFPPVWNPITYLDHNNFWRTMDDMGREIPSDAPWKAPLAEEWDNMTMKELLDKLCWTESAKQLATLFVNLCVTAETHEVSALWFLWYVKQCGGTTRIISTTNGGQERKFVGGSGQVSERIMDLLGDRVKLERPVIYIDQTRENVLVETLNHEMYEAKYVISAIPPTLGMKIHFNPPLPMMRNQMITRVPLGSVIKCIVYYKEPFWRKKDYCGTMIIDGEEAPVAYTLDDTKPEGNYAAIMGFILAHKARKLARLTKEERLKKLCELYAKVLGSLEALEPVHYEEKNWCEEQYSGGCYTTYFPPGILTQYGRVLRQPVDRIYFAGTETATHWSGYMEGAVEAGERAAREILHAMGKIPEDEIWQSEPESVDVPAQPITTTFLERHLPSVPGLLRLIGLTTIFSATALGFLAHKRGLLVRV
Method: (§1) Biological evaluation of the synthesized melatonin derivatives over both MAO-A and MAO-B was performed as reported previously. A detailed description of the protocol is in the Supplementary Materials.
First, the synthesized melatonin analogues (3a–x) were biologically evaluated over an MAO-B recombinant enzyme. The experiment was performed using Amplex® Red reagent technology. This technology offers quantitative enzyme activity sensitive detection, a wider dynamic range, and fluorescence emission outside the range of compound autofluorescence (if any). The Amplex® Red reagent is a colorless substrate that reacts with H2O2 in a 1:1 stoichiometry to produce a highly fluorescent resorufin; therefore, the induced inhibitory effects of the melatonin analogues over MAO-B were examined via spectrophotometry where the fluorescence rate of resorufin dye formation was measured.
Accordingly, compounds 3n, 3r, and 3u–w were further tested to determine their IC50 values over MAO-B in triplicate from the dose–response inhibition curves using Sigma-Plot software 13.0.
(§2) 6. Materials and methods of monoamine oxidase (MAO) enzyme assay
The inhibitory activity of MAO-A, B enzyme of the compounds was evaluated based on previously described method. The MAO activity was measured in relative fluorescence units (RFU) evoked by peroxidase-catalyzed oxidation of Amplex Red® to resorufin, in which H2O2 generated by MAO reaction was used as the […]. Human recombinant MAO-A (hMAO-A) and MAO-B (hMAO-B) enzyme expressed in insect cells were obtained from Sigma Aldrich. The 2 μL of test compound in DMSO (final concentration: 1 nM – 10 μM) was treated with 98 μL of hMAO enzyme solution in 50 mM sodium phosphate buffer (pH 7.4, final protein amounts: ~1.25 μg protein/well for MAO-A and ~2.5 μg protein/well for MAO -B) on 96-well black plate and incubated for 15 min at 37 °C. Then 100 μL of reaction working solution which is mixed solution of 400 μM Amplex Red® (Cayman, final concentration: 200 μM), 2 U/mL horseradish peroxidase ( Sigma-Aldrich, final concentration: 1 U/mL) and 2 mM substrate ( p-tyramine for MAO -A, benzylamine for MAO -B, Sigma-Aldrich, final concentration: 1 mM) in 50 mM sodium phosphate buffer (pH 7.4) were added and incubated for 20 min at 37 °C in the dark. The fluorescent intensity was quantified using a microplate reader (SpectraMax®i3, Molecular Device) with an excitation at 545 nm and an emission at 590 nm. The 50% inhibitory concentrations (IC50) of compounds were determined as the mean ± S.E.M. in triplicate from the dose-response inhibition curves using SigmaPlot® 13.0. […]

[2] = target: T2, Human recombinant MAO-A (hMAO-A) (Homo sapiens, UniProt P21397); assay: MAO-A enzyme assay (Amplex Red), selectivity; assay type: biochemical
T2 construct: purchased Sigma Aldrich; host or cells: insect cells
T2 sequence (P21397 1-527): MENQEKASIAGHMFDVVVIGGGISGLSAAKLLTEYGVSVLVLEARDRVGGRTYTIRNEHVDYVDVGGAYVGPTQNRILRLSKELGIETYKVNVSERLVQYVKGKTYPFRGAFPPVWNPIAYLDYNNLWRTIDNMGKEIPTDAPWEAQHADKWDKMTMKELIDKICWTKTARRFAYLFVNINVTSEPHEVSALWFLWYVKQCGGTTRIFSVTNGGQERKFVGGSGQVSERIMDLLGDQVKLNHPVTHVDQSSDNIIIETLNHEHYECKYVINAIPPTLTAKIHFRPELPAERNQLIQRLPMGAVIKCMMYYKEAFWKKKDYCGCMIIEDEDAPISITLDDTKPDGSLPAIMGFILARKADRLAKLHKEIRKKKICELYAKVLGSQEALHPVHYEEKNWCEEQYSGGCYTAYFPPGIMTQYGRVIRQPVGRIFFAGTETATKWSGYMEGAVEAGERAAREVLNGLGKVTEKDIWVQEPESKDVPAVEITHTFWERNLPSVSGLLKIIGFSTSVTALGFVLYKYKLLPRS
Method: as §1, §2
The inhibitory activity of MAO-A, B enzyme of the compounds was evaluated based on previously described method. The MAO activity was measured in relative fluorescence units (RFU) evoked by peroxidase-catalyzed oxidation of Amplex Red® to resorufin, in which H2O2 generated by MAO reaction was used as the […]. Human recombinant MAO-A (hMAO-A) and MAO-B (hMAO-B) enzyme expressed in insect cells were obtained from Sigma Aldrich. The 2 μL of test compound in DMSO (final concentration: 1 nM – 10 μM) was treated with 98 μL of hMAO enzyme solution in 50 mM sodium phosphate buffer (pH 7.4, final protein amounts: ~1.25 μg protein/well for MAO-A and ~2.5 μg protein/well for MAO -B) on 96-well black plate and incubated for 15 min at 37 °C. Then 100 μL of reaction working solution which is mixed solution of 400 μM Amplex Red® (Cayman, final concentration: 200 μM), 2 U/mL horseradish peroxidase ( Sigma-Aldrich, final concentration: 1 U/mL) and 2 mM substrate ( p-tyramine for MAO -A, benzylamine for MAO -B, Sigma-Aldrich, final concentration: 1 mM) in 50 mM sodium phosphate buffer (pH 7.4) were added and incubated for 20 min at 37 °C in the dark. The fluorescent intensity was quantified using a microplate reader (SpectraMax®i3, Molecular Device) with an excitation at 545 nm and an emission at 590 nm. The 50% inhibitory concentrations (IC50) of compounds were determined as the mean ± S.E.M. in triplicate from the dose-response inhibition curves using SigmaPlot® 13.0.
monoamine oxidase inhibitors. Bioorganic & medicinal chemistry 2015, 23, 6486-6496,

Selectivity Index (SI) [1] | pIC50 [1] | % Inhibition of MAO-B at 10 µM [1] [%] | inhibition at 10 µM [1] [%] | pIC50 [2] | SMILES
>109 | 6.04 | 87.00 ± 0.03 | > 70 | < 4.00 | O=C(Nc1ccc2[nH]ccc2c1)c1cccc(Br)c1 [3r, 3-Bromo-N-(1H-indol-5-yl)benzamide]
>71 | 5.85 | 76.79 ± 0.27 | > 70 | < 4.00 | O=C(Nc1ccc2[nH]ccc2c1)c1cccc(Cl)c1 [3n, 3-Chloro-N-(1H-indol-5-yl)benzamide]
